PMC2953793 (Cancer chemotherapy and pharmacology, 2009)
Where “and” joins values, the source holds several entries; their conditions need not be identical. Equal values may be shown once. Read-outs that look alike come from different tables or passages of the source.

Key:
[1] = test system: human colon cancer and lung cancer xenograft models; conditions: human colon cancer (ref 12) and lung cancer xenograft models (ref 1); cited from earlier work
[2] = test system: PARP
[3] = test system: PARP; conditions: phase 0 study, National Cancer Institute; single oral dose of 25 or 50 mg; cited from earlier work
[4] = test system: PARP; conditions: cited from earlier work
[5] = CD-1 mice; cited from earlier work
[6] = individual animals, single 5 mg/kg dose, 5 mg/kg
[7] = individual animals, single 5 mg/kg dose, model parameter, 5 mg/kg
[8] = mean of three animals, single 5 mg/kg dose, model parameter

SMILES: C[C@]1(c2nc3c(C(N)=O)cccc3[nH]2)CCCN1 [ABT-888]
- potentiation of radiation [1]: potentiates radiation
- % PARP inhibition ([2]; individual animals, PBMCs, 2 h post versus pre-treatment, single oral 5 mg/kg): 52% and 71% and 78%
- reduction of PARP activity in PBMCs compared with pre-treatment levels ([2]; mean ± SD of three animals, 2 h after a single dose): 67 ± 13%
- PARP inhibition in NHP PBMCs ([2]; range across animals, 2 h after single oral dose 5 mg/kg): 52–78%
- PARP inhibition in PBMCs and biopsied tumors [3]: > 90%
- concentrations required for ex vivo PARP inhibition in PBMCs [4]: 0.1 to 0.3 µM
- accumulation in intracranial tumors versus normal brain [5]: preferentially accumulate in intracranial tumors versus normal brain
- V1/F model-estimated apparent volume of distribution [6]: 40.0 L/kg and 24.2 L/kg
- t1/2P model-estimated plasma half-life [6]: 3.9 h and 4.3 h
- K12 rate constant for transfer from plasma to CSF [7]: 7e-06 h⁻¹ and 4.7e-06 h⁻¹ and 1.65e-05 h⁻¹
- K21 rate constant for transfer from CSF to plasma [7]: 0.805 h⁻¹ and 0.420 h⁻¹ and 0.913 h⁻¹
- Ka absorption rate constant [7]: 12.5 h⁻¹ and 53.5 h⁻¹ and 44.2 h⁻¹
- Ke plasma elimination rate constant [7]: 0.18 h⁻¹ and 0.16 h⁻¹
- τ time-delay for absorption of oral drug [7]: 0.76 h and 0.78 h and 2.75 h
- Vd/F (male, rhesus monkey, plasma, po, 5 mg/kg, V1/F model-estimated apparent volume of distribution, individual animals, single 5 mg/kg dose): 41.5 L/kg
- K12 rate constant for transfer from plasma to CSF [8]: 9.4e-06 h⁻¹
- K21 rate constant for transfer from CSF to plasma [8]: 0.71 h⁻¹
- Ka absorption rate constant [8]: 36.7 h⁻¹
- τ time-delay for absorption of oral drug [8]: 1.43 h
- time delay for absorption (range across animals, oral 5 mg/kg): 46 to 165 min
